Data published in patent US20180220653A1, “Methods for Identifying Compounds that Directly Bind to Insect Transient Receptor Potential Channels” (priority 2015, published 2018).
Where two headings read alike, the source gives them in different places.

What was measured:
[1] = test system: locusts (Locusta migratoria); settings: injection, Ausborn et al., 2005; cited from earlier work
[2] = test system: American grasshoppers (Schistocerca americana); test: Leg extension assay in American grasshoppers; format: in vivo; settings: injection, 10 mM in 100% DMSO, 3 μl per animal; assessed 40-60 minutes post-injection
Procedure: American grasshoppers (Schistocerca americana) were obtained from Dr. Hojun Song (University of Central Florida). Test compounds (10 mM in 100% DMSO), or vehicle (100% DMSO) were applied by injection through the abdominal intersegmental cuticle (3 μl per animal), using Hamilton syringe. The effects of compounds were assessed 40-60 minutes post-injection.

[3] = molecular target: T1, insect TRPV channels, Nan and Iav (Drosophila melanogaster, UniProt M9PI57+Q9W3W0)
T1 sequence (M9PI57 1-834): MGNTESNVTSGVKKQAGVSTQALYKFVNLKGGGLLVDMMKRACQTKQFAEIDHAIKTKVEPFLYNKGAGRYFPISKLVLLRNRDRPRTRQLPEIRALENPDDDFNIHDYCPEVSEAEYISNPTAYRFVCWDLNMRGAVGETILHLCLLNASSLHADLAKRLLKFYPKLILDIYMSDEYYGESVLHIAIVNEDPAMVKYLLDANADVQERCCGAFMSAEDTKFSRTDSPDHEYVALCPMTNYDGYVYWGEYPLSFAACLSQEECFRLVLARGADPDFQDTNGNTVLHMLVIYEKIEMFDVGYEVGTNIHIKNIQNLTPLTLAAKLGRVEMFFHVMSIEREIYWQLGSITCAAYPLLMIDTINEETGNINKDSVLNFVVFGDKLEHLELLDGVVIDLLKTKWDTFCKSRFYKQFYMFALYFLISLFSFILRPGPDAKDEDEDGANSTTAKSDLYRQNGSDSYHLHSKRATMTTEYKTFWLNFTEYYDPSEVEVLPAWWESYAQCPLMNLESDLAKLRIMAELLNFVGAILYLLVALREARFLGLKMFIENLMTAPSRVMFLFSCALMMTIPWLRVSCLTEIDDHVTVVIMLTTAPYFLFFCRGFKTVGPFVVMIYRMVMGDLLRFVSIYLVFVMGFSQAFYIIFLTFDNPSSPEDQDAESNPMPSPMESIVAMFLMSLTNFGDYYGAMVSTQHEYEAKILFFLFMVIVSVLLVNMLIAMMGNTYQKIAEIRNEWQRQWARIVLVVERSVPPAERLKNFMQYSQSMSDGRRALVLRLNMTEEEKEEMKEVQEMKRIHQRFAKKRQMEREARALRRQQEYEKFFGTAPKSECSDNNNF
T1 sequence (Q9W3W0 1-1123): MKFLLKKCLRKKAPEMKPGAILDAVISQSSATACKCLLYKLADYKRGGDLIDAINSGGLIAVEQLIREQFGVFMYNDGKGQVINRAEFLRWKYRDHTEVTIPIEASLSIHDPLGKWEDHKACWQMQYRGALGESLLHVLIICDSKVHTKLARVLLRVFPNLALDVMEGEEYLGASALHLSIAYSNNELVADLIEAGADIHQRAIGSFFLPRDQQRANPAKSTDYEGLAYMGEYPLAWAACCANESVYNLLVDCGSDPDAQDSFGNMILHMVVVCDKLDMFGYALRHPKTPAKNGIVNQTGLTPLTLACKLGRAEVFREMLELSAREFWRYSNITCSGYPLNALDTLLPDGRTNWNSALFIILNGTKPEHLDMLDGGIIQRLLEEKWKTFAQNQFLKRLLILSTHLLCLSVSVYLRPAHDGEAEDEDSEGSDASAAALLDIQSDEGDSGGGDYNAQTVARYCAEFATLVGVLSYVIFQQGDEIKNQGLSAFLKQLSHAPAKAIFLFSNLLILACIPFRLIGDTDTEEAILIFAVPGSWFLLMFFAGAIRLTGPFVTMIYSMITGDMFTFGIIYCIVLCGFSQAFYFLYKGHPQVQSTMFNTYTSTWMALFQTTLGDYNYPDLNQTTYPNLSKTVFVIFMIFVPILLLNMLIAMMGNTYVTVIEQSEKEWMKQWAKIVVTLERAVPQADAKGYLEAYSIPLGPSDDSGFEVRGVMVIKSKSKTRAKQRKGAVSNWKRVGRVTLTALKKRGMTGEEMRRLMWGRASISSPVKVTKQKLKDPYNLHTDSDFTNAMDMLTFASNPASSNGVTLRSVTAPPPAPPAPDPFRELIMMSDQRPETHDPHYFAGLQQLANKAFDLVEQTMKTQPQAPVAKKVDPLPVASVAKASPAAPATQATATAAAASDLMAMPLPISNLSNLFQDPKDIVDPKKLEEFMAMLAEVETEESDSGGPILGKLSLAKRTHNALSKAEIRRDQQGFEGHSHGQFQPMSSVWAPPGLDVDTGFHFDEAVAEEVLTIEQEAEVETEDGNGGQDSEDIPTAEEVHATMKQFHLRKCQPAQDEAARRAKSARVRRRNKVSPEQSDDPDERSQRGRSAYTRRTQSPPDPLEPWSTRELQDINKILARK

[4] = Solubility observed in competition binding assay; settings: at high concentrations, binding buffer
[5] = molecular target: T1, insect TRPV channels, Nan and Iav; settings: for EC50: read-out: half-maximal effective concentrations (EC50), calcium mobilization, CHO cells co-expressing Nan and Iav, FIG. 5
[6] = molecular target: T1, insect TRPV channels, Nan and Iav; test: cell-based
Nan = format: binding, Drosophila; settings: for displacement of [3H]-afidopyropen from Nan-only sites: Ki not accurately determined, curves did not reach bottom plateaus
[7] = molecular target: mouse TRPV channel, mTRPV4 (Mus musculus, UniProt Q9EPK8); test: Calcium response in CHO cells expressing mTRPV4; format: cell-based; settings: CHO cells transduced with mTRPV4 adenovirus; FIG. 6
Sequence of mouse TRPV channel, mTRPV4 (Q9EPK8 whole entry): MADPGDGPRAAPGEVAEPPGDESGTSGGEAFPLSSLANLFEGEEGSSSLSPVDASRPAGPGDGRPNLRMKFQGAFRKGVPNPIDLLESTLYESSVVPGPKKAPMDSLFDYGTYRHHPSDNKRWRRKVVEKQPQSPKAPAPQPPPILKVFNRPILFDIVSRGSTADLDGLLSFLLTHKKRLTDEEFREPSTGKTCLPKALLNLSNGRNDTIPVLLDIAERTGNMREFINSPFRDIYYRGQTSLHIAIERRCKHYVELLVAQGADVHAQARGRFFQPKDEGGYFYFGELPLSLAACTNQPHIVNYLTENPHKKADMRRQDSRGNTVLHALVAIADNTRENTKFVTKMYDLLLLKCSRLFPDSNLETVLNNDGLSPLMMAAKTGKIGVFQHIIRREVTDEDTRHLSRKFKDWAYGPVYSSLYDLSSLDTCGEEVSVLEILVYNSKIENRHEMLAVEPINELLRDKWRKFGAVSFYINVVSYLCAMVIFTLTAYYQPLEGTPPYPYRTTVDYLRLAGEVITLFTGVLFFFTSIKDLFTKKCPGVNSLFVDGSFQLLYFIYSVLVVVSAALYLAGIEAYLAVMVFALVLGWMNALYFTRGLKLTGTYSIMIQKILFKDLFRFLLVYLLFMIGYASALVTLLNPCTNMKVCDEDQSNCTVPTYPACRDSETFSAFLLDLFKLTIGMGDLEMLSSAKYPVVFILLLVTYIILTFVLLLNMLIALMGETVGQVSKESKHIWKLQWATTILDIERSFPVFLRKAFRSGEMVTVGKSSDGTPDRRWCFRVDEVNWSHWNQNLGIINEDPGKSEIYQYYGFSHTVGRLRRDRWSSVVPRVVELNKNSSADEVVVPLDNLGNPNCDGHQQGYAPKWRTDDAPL

[8] = test system: Nan and Iav from pea aphid; test: Two-electrode voltage clamp in Xenopus laevis oocytes injected with Nan and Iav mRNA; format: cell-based, Acyrthosiphon pisum; settings: 10 uM dPFQ; oocytes with Nan+Iav vs Nan or Iav alone; FIG. 4a
[9] = Nan+Iav cells vs parental cells and cells expressing Nan or Iav alone, FIG. 4
[10] = Nan+Iav cells vs parental cells and cells expressing Nan or Iav alone, FIG. 3

Structure (SMILES) | hind leg extension [1] | hind leg extension [2] | membrane depolarization response [3] | solubility [4] | calcium mobilization response [5] | EC50 [6] [nM] | displacement of [3H]-afidopyropen from Nan-only sites (Nan) | calcium response / activation of mTRPV4 [7] | membrane depolarization response [3, 9] | inward and outward current responses [8] | calcium mobilization response [5, 10] | EC50 [5] [nM] | Ki (Nan; Nan-only expressing membranes, FIG. 9B, read-out: Ki, displacement assay) [nM]
CC1=NNC(=O)N(/N=C/c2cccnc2)C1 [pymetrozine] | produce characteristic hind leg extension | Elicit Characteristic Hind Leg Extension | only in cells co-infected with Nan and Iav viruses | poor solubility | only in cells co-infected with Nan and Iav viruses | 51 | clearly displaced |  |  |  |  |  | 
CC(C)C[C@H](NC(=O)c1cc2ccccc2s1)C(=O)N1CCN(C(=O)[C@H](CO)NS(=O)(=O)c2ccc(Cl)cc2Cl)CC1 [GSK1016790A, N-((1S)-1-{[4-((2S)-2-{[(2,4-dichlorophenyl)sulfonyl]amino}-3-hydroxypropanoyl)-1-piperazinyl]carbonyl}-3-methylbutyl)-1-benzothiophene-2-carboxamide] |  |  |  |  |  |  |  | evoked strong calcium response |  |  |  |  | 
O=C1Nc2ccc(C(F)(C(F)(F)F)C(F)(F)F)cc2CN1NCc1cccnc1 [N-deacetylated pyrifluquinazon] |  |  |  | poor solubility |  |  | clearly displaced |  | only in cells co-infected with Nan and Iav viruses | evoked both inward and outward current responses only in oocytes expressing both Nan and Iav | only in cells co-infected with Nan and Iav viruses | 64 | 
C[C@]1(COC(=O)C2CC2)[C@@H]2C[C@H](O)[C@@]3(C)Oc4cc(-c5cccnc5)oc(=O)c4[C@H](O)[C@@H]3[C@@]2(C)CC[C@@H]1OC(=O)C1CC1 [afidopyropen] |  | elicited hind leg extension |  |  |  |  |  | failed to activate | only in cells co-infected with Nan and Iav viruses |  | only in cells co-infected with Nan and Iav viruses | 1 | 3.1
